One experiment has as its target HparOBP20 (Holotrichia parallela, UniProt A0A0G2YKL4). Put plainly: Fluorescence competitive binding assay with 1-NPN probe, recombinant HparOBP20. The protocol: (§1) Purification was performed via Ni ion affinity chromatography (GE Healthcare, Beijing, China), and the His-tag was removed using enterokinase for HparOBP20 or tobacco etch virus (TEV) protease for HparOBP49.
(§2) We used an F-380 fluorescence spectrophotometer (Tianjin, China) to determine the results of the perform the binding assay at room temperature (25°C). The excitation wavelength was 337 nm, and the emission spectrum was recorded between 390 and 460 nm.

The target in the next experiment is HparOBP49 (Holotrichia parallela, UniProt A0A0G2YD95). Kind of experiment: Fluorescence competitive binding assay with 1-NPN probe, recombinant HparOBP49. Here is the method: as §1, §2
Sequence of HparOBP49 (A0A0G2YD95 entry or part of it): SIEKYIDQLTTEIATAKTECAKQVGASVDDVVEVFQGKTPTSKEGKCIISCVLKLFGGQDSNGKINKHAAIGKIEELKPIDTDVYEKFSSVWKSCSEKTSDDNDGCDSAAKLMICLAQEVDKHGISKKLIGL
For experiment [1], the system named is DBC adults. Kind of experiment: Y-tube olfactometer behavioral response. Particulars: 1 μg/μl, T/(T+C); for Selective response rate (%), Male / Selective response rate (%), Female: in Figure 6, letters mark significance. In kind it is in vivo, Holotrichia parallela. The protocol:
The behavioral responses of female and male adults to the putative ligands were tested using a Y-tube olfactometer in a dark room at 27 ± 1°C. A filter paper (25 × 8 mm) with 10 μl of the test compound was placed at the end of one arm of the Y-tube, with 10 μl of methanol at the end of the other arm (control tube). The airflow was 500 ml/min. Six replicates were performed for each stimulant with 10 healthy virgin adults in the main stem of the Y-tube, and 10 min was allowed for their distribution. The response rate was calculated according to the following equations: response rate = (T+C)/SUM and selective response rate = T/(T+C), where T represents the number of beetles in the treatment tube; C indicates the number of beetles in the control tube; and SUM is the number of beetles tested.

Experiment [2] concerns DBC adults. Put plainly: Field evaluation, baited traps. Particulars: for Male DBCs caught in traps: males, 360 mg per dispenser, mean ± SE, N=3 traps; for Attractant ability in traps: result in words. The experiment is classed as in vivo, Holotrichia parallela. The protocol: According to the laboratory evaluation, in addition to the main sex pheromone component, L-leucine methyl ester, (Z)-3-hexenyl acetate was considered as a candidate compound for attracting DBC adults in the field. The tested chemicals were individually dissolved with methanol to 360 mg/ml. A dispenser was constructed using oil-free cotton wool with 360 mg of the tested chemical and stored in a freezer before use. Methanol was employed as a control. The treatments were as follows: • - L-leucine methyl ester alone, 360 mg/ml, 1 ml/dispenser • - (Z)-3-hexenyl acetate alone, 360 mg/ml, 1 ml/dispenser • - methanol alone as control, 99% purity, 1 ml/dispenser All experiments were performed at the experimental station of the Shandong Peanut Research Institute, Lai Xi Wang Cheng, Qingdao, China. Traps were placed in middle of the field, and each trap was located 60 m from any other trap, so that the individual treatments were 60 m apart. To avoid cross-contamination, only one compound was tested at each sub-site at any time, and each compound was tested at only one sub-site ([Isberg et al., 2017]). Each trap was set to operate from 1 h before sunset until 1 h after sunset. Three traps (replicates) were selected for each treatment. The test period was June 1–20, 2017. As a rule, the traps were checked every day, and the individuals that were caught in all experiments were sexed.

A further experiment concerns DBC antennae. Kind of experiment: Electroantennogram (EAG) responses of virgin male/female antennae. On the set-up: species or system Holotrichia parallela. The following applies: 1 μg/μl, corrected with methanol; for EAG response, males: male antennae. Here is the method: The EAG responses of virgin male/female antennae were measured after removing the tips of the three antennal lamellae (at approximately 1 mm) and separating them from each other. The chemicals used for the EAG and behavior assays were diluted in methanol (HPLC grade) to varying concentrations (0.1, 1, and 10 μg/μl), and methanol was used as a control. A 10 μl aliquot of each concentration was applied to a filter paper (25 × 8 mm). EAG responses were recorded for 5 s, with a stimulation interval of 30 s and a flow rate of 4 ml/s for both the stimulant and purge airflow. Each chemical was tested against six antennae, and each antenna was tested with three repeated stimulations. The EAG apparatus consisted of a signal acquisition system (IDAC-4), a micromanipulator assembly (INR-5), a stimulus controller (CS-05), and a system for outputting the EAG results (Syntech Company, Holland).

[3] abbreviates: displacement of 2 μM 1-NPN, 2 μM protein, Tris-HCl pH 7.4, 25°C, read-out: IC50, HparOBP20.
Where [4] appears, read: displacement of 2 μM 1-NPN, 2 μM protein, Tris-HCl pH 7.4, 25°C, read-out: IC50, HparOBP49.
The mark [5] stands for this setting: calculated from IC50, Ki = [IC50]/(1+[1-NPN]/K1-NPN), read-out: Ki, HparOBP20.
[6] abbreviates: Ki, HparOBP20, calculated from IC50, Ki = [IC50]/(1+[1-NPN]/K1-NPN).

Read-outs that look alike come from different tables or passages of the source.

Sequence of HparOBP20 (A0A0G2YKL4 entry or part of it): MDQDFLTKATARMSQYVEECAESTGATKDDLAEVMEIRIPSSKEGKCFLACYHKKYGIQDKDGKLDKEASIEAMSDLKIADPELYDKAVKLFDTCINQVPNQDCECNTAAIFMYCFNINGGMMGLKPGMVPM

Take `CCCCCC=O` [1-Hexanal]: the half-maximal inhibitory concentration (IC50) at HparOBP20 and on HparOBP49 was greater than 50 µM each time.
Regarding `CCCCCCO` [1-Hexanol], the IC50 on HparOBP20 (setting [3]) and at HparOBP49 (setting [4]) was greater than 50 µM in each case.
Regarding `Cn1cccc1` [1-Methylpyrrole], the Ki at HparOBP20 (setting [5]) was 21.9 µM. Moreover, the IC50 was 26.1 µM on HparOBP20 (setting [3]) and greater than 50 µM at HparOBP49 (setting [4]).
The matching figures for `CCCCCCCCO` [1-Octanol]: 25.3 µM, 30.2 µM and greater than 50 µM.
`CC(=O)c1ccc(C)c(C)c1` [3′,4′-Dimethylacetophenone]: the IC50 on HparOBP20 (setting [3]) and at HparOBP49 (setting [4]) was greater than 50 µM in each case.
As to `CCc1ccc(C(C)=O)cc1` [4′-Ethylacetophenone], the IC50 on HparOBP20 and on HparOBP49 was greater than 50 µM each time.
For `CCC/C=C/CO` [(E)-2-Hexen-1-ol], the IC50 on HparOBP20 and at HparOBP49 was greater than 50 µM throughout.
For the compound `CCC/C=C/C=O` [(E)-2-Hexenal], the IC50 at HparOBP20 and at HparOBP49 was greater than 50 µM throughout.
For `CCC/C=C/COC(C)=O` [(E)-2-Hexenyl acetate], the Ki at HparOBP20 (setting [5]) was 23.3 µM. The IC50 is 27.8 µM on HparOBP20 (setting [3]) and greater than 50 µM on HparOBP49 (setting [4]).
As for `CC/C=C/CCO` [(E)-3-Hexen-1-ol], the IC50 was 30.3 µM on HparOBP20 and greater than 50 µM on HparOBP49. The Ki at HparOBP20 (setting [6]) is 25.4 µM.
Turning to `C=C(C)[C@H]1CC=C(C)CC1` [(R)-(+)-Limonene], the Ki on HparOBP20 (setting [5]) is 24 µM. Further, the figures for the IC50 on HparOBP20 (setting [3]) and on HparOBP49 (setting [4]) were 28.7 µM and greater than 50 µM, respectively.
Consider `C=C[C@](C)(O)CCC=C(C)C` [(R)-(-)-Linalool], for which the IC50 at HparOBP20 (setting [3]) and on HparOBP49 (setting [4]) was greater than 50 µM throughout.
Regarding `CC/C=C\CCO` [(Z)-3-Hexen-1-ol], the IC50 at HparOBP20 is 30.1 µM; on HparOBP49 it was greater than 50 µM. Also, the Ki on HparOBP20 (setting [6]) was 25.2 µM.
For `CC/C=C\CCOC(C)=O` [(Z)-3-Hexenyl acetate], the “Selective response rate, females” value in the experiment on DBC adults [1] (females) is recorded as 98%. The same compound registered a Selective response rate (%), Male with DBC adults [1] (males) of 59%. Further, in the experiment with DBC adults [2], the “Male DBCs caught in traps” value was found to be 83 ± 4.933 DBCs. In addition, the “EAG response, females” value with DBC antennae (female antennae) is 4.84 mV. Moreover, in the experiment with DBC antennae, the “EAG response, males” value turned out to be 4.02 mV. Also, the Ki on HparOBP20 (setting [5]) is 18.5 µM; on HparOBP49 (calculated from IC50, Ki = [IC50]/(1+[1-NPN]/K1-NPN), read-out: Ki, HparOBP49) it was 39.7 µM. Besides, the IC50 was 22.1 µM at HparOBP20 (setting [3]) and 44.7 µM at HparOBP49 (setting [4]).
For `O=Cc1ccccc1` [Benzaldehyde], the IC50 at HparOBP20 and at HparOBP49 was greater than 50 µM throughout.
Consider `OCc1ccccc1` [Benzyl alcohol], for which the 50% inhibitory concentration (IC50) on HparOBP20 and on HparOBP49 was greater than 50 µM in each case.
As to `CCCCCCCCCCCC` [Dodecane], the Ki on HparOBP20 (setting [5]) is 40.6 µM. Moreover, the results for the half-maximal inhibitory concentration (IC50) at HparOBP20 (setting [3]) and at HparOBP49 (setting [4]) were 48.5 µM and greater than 50 µM, respectively.
Consider `CCCCCCCCCCCC=O` [Dodecyl aldehyde], for which the IC50 at HparOBP20 (setting [3]) and on HparOBP49 (setting [4]) was greater than 50 µM each time.
Consider `CC(C)=CCC/C(C)=C/CC/C(C)=C/CO` [Farnesol, mixture of isomers, Farnesol], for which the IC50 on HparOBP20 (setting [3]) and at HparOBP49 (setting [4]) was greater than 50 µM in each case.
Consider `CCCCCC(=O)O` [Hexanoic acid], for which the IC50 on HparOBP20 was determined as 47.2 µM; at HparOBP49 it was 47.6 µM. The inhibition constant (Ki) at HparOBP20 (setting [6]) is 39.5 µM; on HparOBP49, 42.2 µM.
For the compound `COC(=O)[C@@H](N)CC(C)C.Cl` [L-Leucine methyl ester], in the experiment on DBC adults [1] (females), the “Selective response rate (%), Female” value is 0.20c %. In addition, in the experiment on DBC adults [1] (males), the “Selective response rate, males” value stood at 96%. Moreover, the “Male DBCs caught in traps” value in the experiment on DBC adults [2] is reported as 258 ± 12.860 DBCs. Further, the “EAG response, males” value in the experiment on DBC antennae turned out to be 5.68 mV. Besides, the IC50 on HparOBP20 (setting [3]) and on HparOBP49 (setting [4]) was greater than 50 µM in each case.
As for `COC(=O)c1ccccc1` [Methyl benzoate], the concentration for half-maximal inhibition (IC50) at HparOBP20 and at HparOBP49 was greater than 50 µM throughout.
Turning to `COC(=O)c1ccccc1O` [Methyl salicylate], the values for the IC50 at HparOBP20 and at HparOBP49 were 28.5 µM and greater than 50 µM, respectively. On HparOBP20 (setting [6]), the Ki is 23.8 µM.
As for `CCCCCCCCC=O` [Nonanal], the IC50 at HparOBP20 (setting [3]) and on HparOBP49 (setting [4]) was greater than 50 µM in each case.
With `CCCCCCCCC(=O)O` [Nonanoic acid], the IC50 on HparOBP20 (setting [3]) and at HparOBP49 (setting [4]) was greater than 50 µM throughout.
With `CCCCCCCCCCCCCCC` [Pentadecane], in the experiment with DBC adults [1] (females), the Selective response rate (%), Female was 67%. Also, the Selective response rate (%), Male in the experiment with DBC adults [1] (males) was found to be 59%. For the same compound, the “Attractant ability in traps” value in the experiment on DBC adults [2] is recorded as “low attractant ability”. Further, the Ki at HparOBP20 (setting [5]) is 13.8 µM. Moreover, the IC50 at HparOBP20 (setting [3]) is 16.5 µM; at HparOBP49 (setting [4]) it was greater than 50 µM.
Turning to `CCCCC=O` [Valeraldehyde], the Ki on HparOBP20 (setting [5]) was 26.1 µM. Moreover, the results for the IC50 on HparOBP20 (setting [3]) and at HparOBP49 (setting [4]) were 31.1 µM and greater than 50 µM, respectively.
Consider `CC1=CC[C@H](C(C)C)C=C1` [α-Phellandrene], for which the Selective response rate (%), Female in the experiment on DBC adults [1] (females) was 51%. In addition, the Selective response rate (%), Male in the experiment on DBC adults [1] (males) amounted to 73%. Besides, the “Attractant ability in traps” value in the experiment on DBC adults [2] is “low attractant ability”. Further, the IC50 is 21.1 µM at HparOBP20 and greater than 50 µM on HparOBP49. Besides, the Ki at HparOBP20 (setting [6]) is 17.6 µM.
Turning to `CC1=CCC2CC1C2(C)C` (stereo not drawn) [α-Pinene], the IC50 is 26.8 µM on HparOBP20 and greater than 50 µM on HparOBP49. The Ki on HparOBP20 (setting [6]) is 22.4 µM.
Consider `C=C1CC/C=C(\C)CC[C@@H]2[C@@H]1CC2(C)C` [β-Caryophyllene], for which the Selective response rate (%), Female with DBC adults [1] (females) amounted to 48%. Moreover, the IC50 on HparOBP20 and on HparOBP49 was greater than 50 µM each time.
In the case of “Farnesene [Farnesene, mixture of isomers]”, the IC50 at HparOBP20 (setting [3]) and at HparOBP49 (setting [4]) was greater than 50 µM each time.
Turning to Ocimene [Ocimene, mixture of isomers], the IC50 at HparOBP20 (setting [3]) and on HparOBP49 (setting [4]) was greater than 50 µM each time.

For orientation: IC50 means the concentration needed to halve the response being measured. A word on the Ki: it is the equilibrium dissociation constant of an inhibitor or competing ligand from its target.

Values taken from PMC6058716, “Two Odorant-Binding Proteins of the Dark Black Chafer (Holotrichia parallela) Display Preferential Binding to Biologically Active Host Plant Volatiles” (Frontiers in Physiology, 2018).
